Test results reported in patent publication US6613767B1, “Stable aqueous folinate solution” (Pharmachemie B.V., priority 1994, dated 2003).

Legend:
[1] = normal refrigerator temperature of approximately 4° C.; cited from earlier work
[2] = Accelerated shelf life tests of sodium folinate injection, 40° C./75% RH; format: physicochemical; details: during autoclaving (121° C. for 7 min)
Protocol: Tests were carried out with sodium folinate bulk solutions of 200 ml containing 25, 100, 250 and 400 mg sodium folinate/ml respectively as indicated in Table 1. Each bulk solution was prepared with a 2% excess of sodium folinate, because during autoclaving ca. 2% folinic acid decomposes. Subsquently, 2.15 ml of each formulated solution was used to fill 2R bottles to the exclusion of air. Afterwards, the bottles were then autoclaved at 121° C. for 7 min. The bottles were thereafter stored at 40° C./75% RH (RH=relative humidity). The following analyses were carried out initially at the beginning of the test and after two weeks:
oxygen percentage in the headspace
content of folinic acid and decomposition products.
The results are summarized in the Tables 2-5 for the accelerated shelf life tests of the sodium folinate injection preparation having a content of sodium folinate of 25 mg/ml, 100 mg/ml, 250 mg/ml and 400 mg/ml, respectively. The bottles were stored at 40° C./[…] during the two week time period for the shelf life tests.

| Folinic acid decomposed during autoclaving [2] | SMILES | Concentration at which crystallization takes place [1] |
| --- | --- | --- |
| – | Nc1nc(=O)c2c([nH]1)NCC(CNc1ccc(C(=O)N[C@@H](CCC(=O)[O-])C(=O)[O-])cc1)N2C=O.[Ca+2] (some centres unmarked) [Calcium folinate, calcium folinate] | ≥ 15 mg/mL |
| ca. 2% | Nc1nc(=O)c2c([nH]1)NC[C@@H](CNc1ccc(C(=O)N[C@@H](CCC(=O)O)C(=O)O)cc1)N2C=O [folinic acid] | – |
